According to article PMC8516952, “Two triterpenoids from Rubus fraxinifolius leaves and their tyrosinase and elastase inhibitory activities” (Scientific Reports, 2021):
In brackets after ≈: the same amount, converted by molar mass.

Assays:
mushroom tyrosinase = assay: Tyrosinase inhibition assay (DOPA-chrome formation method); format: biochemical, Agaricus bisporus
Experimental: Tyrosinase inhibition was determined using the DOPA-chrome formation method as described previously with slight modifications. […] They were preincubated for 10 min at room temperature. Reactions were initiated by adding 4 μL aliquots of 10 mM L-DOPA to each well and incubating at 37 °C for 20 min. Tyrosinase activity was then determined by measuring absorbance at 475 nm. […] Experiments were performed in triplicate.

[1] = target: porcine pancreatic elastase (Sus scrofa, UniProt P00772)
Experimental: Elastase inhibition assay was performed as described previously with some modifications[32]. Briefly, in Nunc-96 well microtiter plates, 20-µL aliquots of 0.8-units/mL PPE in Trizma® base buffer (pH 8.0) were mixed with 20-µL samples, and the mixtures were then diluted to 180 µL in Trizma® base buffer. Test extracts were preincubated with enzyme for 15 min, and 20-μL aliquots of the substrate N-succinyl-Ala-Ala-Ala-p-nitroanilide (A3PVN; 2.9 mM) were added and incubated for another 15 min. Positive control and blank wells contained oleanolic acid and water, respectively. Experiments were conducted in triplicate, and inhibition rates were determined according to absorbance at 401 nm using a VersaMax microplate reader.
Percentage inhibition was calculated using the following equation: Elastase inhibition%=1-T-Tb/E-Eb×100, where E is the absorbance of the enzyme reaction, Eb is the absorbance of the enzyme blank, T is the absorbance of the test sample, and Tb is the absorbance of the test blank.

elastase = conditions: cited from earlier work

Chain of porcine pancreatic elastase (P00772 27-266): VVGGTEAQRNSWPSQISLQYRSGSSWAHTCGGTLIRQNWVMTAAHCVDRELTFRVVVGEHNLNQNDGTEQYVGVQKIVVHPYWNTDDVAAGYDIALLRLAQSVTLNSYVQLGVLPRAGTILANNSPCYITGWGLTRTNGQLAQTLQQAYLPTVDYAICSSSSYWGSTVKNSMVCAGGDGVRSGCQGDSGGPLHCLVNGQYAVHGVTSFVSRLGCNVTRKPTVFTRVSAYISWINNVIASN

SMILES	Activity as tyrosinase inhibitors (in words) (mushroom tyrosinase)	IC50 tyrosinase inhibition (mushroom tyrosinase)	IC50 [1]	IC50 elastase inhibition (previous studies) (elastase)
C[C@@H]1CC[C@]2(C(=O)O)CCC3(C)C(=CCC4C3(C)CCC3C(C)(C(=O)O)[C@H]5OCCO[C@@H]5C[C@@]34C)C2[C@]1(C)O (stereo partly shown) [Compound 1, 2,3-O-ethylene glycol, 19-hydroxyurs-12-en-23,28-dioic acid]	moderate activities	207.79 µg/mL (≈ 381 µM)	224 µM	
C[C@@H]1CC[C@]2(C(=O)O)CCC3(C)C(=CCC4C3(C)CCC3C(C)(C)[C@H]5OCCCO[C@@H]5C[C@@]34C)C2[C@]1(C)O (stereo partly shown) [Compound 2, 2,3-O-Propanediol, 19-hydroxyurs-12-en-28-oic acid]	moderate activities	221.51 µg/mL (≈ 419 µM)	186 µM	
C[C@H]1[C@H](C)CC[C@]2(C(=O)O)CC[C@]3(C)C(=CC[C@@H]4[C@@]5(C)CC[C@H](O)C(C)(C)[C@@H]5CC[C@]43C)[C@H]12 [ursolic acid]				31.0 µg/mL (≈ 67.9 µM)
